Experimental data: ChEMBL document CHEMBL1201862, “PubChem BioAssay data set” (2004)
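A five-concentration, 48-hour dose response in 96-well plates underlies each endpoint, interpolated linearly between surrounding concentrations. GI50 is the concentration that inhibits growth by half.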 Calls of active or inactive are those of the source. Cut-off read from the data, not from the text of the source: active = GI50 up to about 1.1 µM and inactive = higher.

Columns and labels:
Test in all cases: DTP human tumour cell line panel, 48 h
HCC 2998 = system: HCC 2998
HL-60 = system: HL-60
UO-31 = system: UO-31
SK-OV-3 = system: SK-OV-3
SN12C = system: SN12C
NCI/ADR-RES = system: NCI/ADR-RES
HOP-62 = system: HOP-62
T47D = system: T47D
OVCAR-8 = system: OVCAR-8
SK-MEL-28 = system: SK-MEL-28
CAKI-1 = system: CAKI-1
SF-268 = system: SF-268
Hs-578T = system: Hs-578T
EKVX = system: EKVX
786-0 = system: 786-0
OVCAR-3 = system: OVCAR-3
PC-3 = system: PC-3

CC(=O)Nc1ccc2c(c1)[nH]c(=O)c1cc(Cl)ccc12
GI50 (HCC 2998): 38.5 µM (inactive)
GI50 (HL-60): 21.1 µM (inactive)
GI50 (UO-31): 18.2 µM (inactive)
GI50 (SK-OV-3): 34.8 µM (inactive)
GI50 (SN12C): 43.5 µM (inactive)
GI50 (NCI/ADR-RES): 48.8 µM (inactive)
GI50 (HOP-62): 33 µM (inactive)
GI50 (T47D): 57.9 µM (inactive)
GI50 (OVCAR-8): 10 µM (inactive)
GI50 (SK-MEL-28): 38.8 µM (inactive)
GI50 (CAKI-1): 0.51 µM (active)
GI50 (SF-268): 26.9 µM (inactive)
GI50 (Hs-578T): 94 µM (inactive)
GI50 (EKVX): 26.2 µM (inactive)
GI50 (786-0): 65.6 µM (inactive)

COc1nc(O)nc2c1C(c1ccc([N+](=O)[O-])cc1)c1c(OC)nc(O)nc1O2
GI50 (HL-60): > 100 µM (inactive)
GI50 (UO-31): > 100 µM (inactive)
GI50 (SK-OV-3): > 100 µM (inactive)
GI50 (SN12C): > 100 µM (inactive)
GI50 (OVCAR-3): > 100 µM (inactive)
GI50 (NCI/ADR-RES): > 100 µM (inactive)
GI50 (HOP-62): > 100 µM (inactive)
GI50 (OVCAR-8): > 100 µM (inactive)
GI50 (SK-MEL-28): > 100 µM (inactive)
GI50 (CAKI-1): > 100 µM (inactive)
GI50 (SF-268): > 100 µM (inactive)
GI50 (PC-3): > 100 µM (inactive)
GI50 (Hs-578T): > 100 µM (inactive)
GI50 (EKVX): > 100 µM (inactive)
GI50 (786-0): > 100 µM (inactive)

CC(C)NCCC(O)c1cc2ccccc2o1 (stereo not given)
GI50 (UO-31): > 100 µM (inactive)
GI50 (SK-OV-3): > 100 µM (inactive)
GI50 (SN12C): 30.1 µM (inactive)
GI50 (OVCAR-3): > 100 µM (inactive)
GI50 (NCI/ADR-RES): > 100 µM (inactive)
GI50 (HOP-62): > 100 µM (inactive)
GI50 (T47D): > 100 µM (inactive)
GI50 (OVCAR-8): > 100 µM (inactive)
GI50 (SK-MEL-28): > 100 µM (inactive)
GI50 (CAKI-1): > 100 µM (inactive)
GI50 (SF-268): > 100 µM (inactive)
GI50 (PC-3): > 100 µM (inactive)
GI50 (Hs-578T): > 100 µM (inactive)
GI50 (EKVX): > 100 µM (inactive)
GI50 (786-0): > 100 µM (inactive)

COc1ncnc2c1cnn2Cc1cn(COCC(O)CO)nn1 (stereo not given)
GI50 (HCC 2998): > 100 µM (inactive)
GI50 (HL-60): > 100 µM (inactive)
GI50 (UO-31): > 100 µM (inactive)
GI50 (SK-OV-3): > 100 µM (inactive)
GI50 (SN12C): > 100 µM (inactive)
GI50 (OVCAR-3): > 100 µM (inactive)
GI50 (NCI/ADR-RES): > 100 µM (inactive)
GI50 (HOP-62): > 100 µM (inactive)
GI50 (T47D): > 100 µM (inactive)
GI50 (OVCAR-8): > 100 µM (inactive)
GI50 (SK-MEL-28): > 100 µM (inactive)
GI50 (CAKI-1): > 100 µM (inactive)
GI50 (SF-268): 16.3 µM (inactive)
GI50 (PC-3): > 100 µM (inactive)
GI50 (EKVX): > 100 µM (inactive)
GI50 (786-0): > 100 µM (inactive)

CCOC(=O)C1C(=O)CC(C)(O)C(C(=O)OCC)C1c1ccc(N(C)C)cc1 (stereo not given)
GI50 (HCC 2998): > 100 µM (inactive)
GI50 (HL-60): > 100 µM (inactive)
GI50 (UO-31): > 100 µM (inactive)
GI50 (SN12C): > 100 µM (inactive)
GI50 (OVCAR-3): > 100 µM (inactive)
GI50 (NCI/ADR-RES): > 100 µM (inactive)
GI50 (HOP-62): > 100 µM (inactive)
GI50 (T47D): > 100 µM (inactive)
GI50 (OVCAR-8): > 100 µM (inactive)
GI50 (SK-MEL-28): > 100 µM (inactive)
GI50 (CAKI-1): > 100 µM (inactive)
GI50 (SF-268): > 100 µM (inactive)
GI50 (PC-3): > 100 µM (inactive)
GI50 (EKVX): > 100 µM (inactive)
GI50 (786-0): > 100 µM (inactive)

COc1c(N2CCCCC2)c2c(=O)c3ccccc3oc2c2c3ccccc3n(C)c12
GI50 (HCC 2998): > 100 µM (inactive)
GI50 (HL-60): 57.3 µM (inactive)
GI50 (UO-31): > 100 µM (inactive)
GI50 (SK-OV-3): > 100 µM (inactive)
GI50 (SN12C): 47.6 µM (inactive)
GI50 (OVCAR-3): > 100 µM (inactive)
GI50 (NCI/ADR-RES): > 100 µM (inactive)
GI50 (HOP-62): > 100 µM (inactive)
GI50 (OVCAR-8): > 100 µM (inactive)
GI50 (SK-MEL-28): > 100 µM (inactive)
GI50 (CAKI-1): > 100 µM (inactive)
GI50 (SF-268): > 100 µM (inactive)
GI50 (PC-3): > 100 µM (inactive)
GI50 (Hs-578T): > 100 µM (inactive)
GI50 (EKVX): > 100 µM (inactive)
GI50 (786-0): > 100 µM (inactive)

COc1ccc(N2C(=O)/C(=C\c3cccc(Oc4ccccc4)c3)S(=O)(=O)C2c2ccccc2)cc1 (stereo not given)
GI50 (HCC 2998): > 100 µM (inactive)
GI50 (HL-60): 7.24 µM (inactive)
GI50 (UO-31): 53.6 µM (inactive)
GI50 (SN12C): 66.4 µM (inactive)
GI50 (OVCAR-3): 28.1 µM (inactive)
GI50 (NCI/ADR-RES): 16.2 µM (inactive)
GI50 (HOP-62): 51.9 µM (inactive)
GI50 (T47D): 35.6 µM (inactive)
GI50 (SK-MEL-28): > 100 µM (inactive)
GI50 (CAKI-1): 68.4 µM (inactive)
GI50 (PC-3): 56 µM (inactive)
GI50 (EKVX): 15.7 µM (inactive)
GI50 (786-0): 18.1 µM (inactive)

Cc1nc2c(=S)n(C)ncc2[nH]1
GI50 (HCC 2998): > 100 µM (inactive)
GI50 (HL-60): > 100 µM (inactive)
GI50 (UO-31): > 100 µM (inactive)
GI50 (SK-OV-3): > 100 µM (inactive)
GI50 (SN12C): > 100 µM (inactive)
GI50 (OVCAR-3): > 100 µM (inactive)
GI50 (NCI/ADR-RES): > 100 µM (inactive)
GI50 (HOP-62): > 100 µM (inactive)
GI50 (T47D): > 100 µM (inactive)
GI50 (OVCAR-8): > 100 µM (inactive)
GI50 (SK-MEL-28): > 100 µM (inactive)
GI50 (CAKI-1): > 100 µM (inactive)
GI50 (PC-3): > 100 µM (inactive)
GI50 (EKVX): > 100 µM (inactive)
GI50 (786-0): > 100 µM (inactive)

Cc1cc(C)c2c(O)cc(-c3cccc(Cl)c3)nc2n1
GI50 (HCC 2998): 0.403 µM (active)
GI50 (HL-60): 0.0316 µM (active)
GI50 (UO-31): 3.34 µM (inactive)
GI50 (SK-OV-3): 0.293 µM (active)
GI50 (SN12C): 0.187 µM (active)
GI50 (OVCAR-3): 0.106 µM (active)
GI50 (NCI/ADR-RES): 0.254 µM (active)
GI50 (HOP-62): 0.438 µM (active)
GI50 (OVCAR-8): 0.4 µM (active)
GI50 (SK-MEL-28): 5.09 µM (inactive)
GI50 (SF-268): 1.05 µM (active)
GI50 (PC-3): 0.0282 µM (active)
GI50 (Hs-578T): 0.252 µM (active)
GI50 (EKVX): > 25 µM (inactive)
GI50 (786-0): 0.261 µM (active)
